Results: patent US7872128B2, “Benzisoxazole and isoxazolo-pyridine compounds and method of use” (Amgen Inc., priority 2006, dated 2011)
pIC50: −log10 of the molar value.

Tested on: SCF or GM-CSF-stimulated UT-7 cells
Test: SCF and GM-CSF stimulated UT7 proliferation/survival assay
Type: cell-based
Details: Homo sapiens, UT7, 72 h, 3 days, ATP readout
From the text: SCF and GM-CSF Stimulated UT7 Proliferation/Survival Assay:
The purpose of this assay is to test the general anti-proliferative/cytotoxic effect of small molecule compounds on SCF or GM-CSF-stimulated UT-7 cells. Preventing SCF stimulated proliferation/survival is consistent with an on-mechanism effect whereas inhibition of GM-CSF driven proliferation/survival is indicative of off-target effects. UT-7 is a factor dependent human megakaryoblastic leukemia cell line that can be grown in either IL-3, GM-CSF, EPO or SCF (these cells have been confirmed to carry wild type c-kit receptor). Cells are maintained in growth media (IMDM, 10% HI-FBS, 1×PGS, 1 ng/mL GM-CSF). To measure SCF or GM-CSF-induced proliferation, cells are washed and re-suspended to 5e4c/mL in assay media (RPMI 1640/4% HI-FBS, 1×PGS) and plated at 50 uL/well for 2500c/well. Small molecule compounds are first diluted in 100% DMSO, then diluted 1:4 in RT assay media. 5 Microliters of 11×SCF (55 ng/mL) or 11×GM-CSF (11 ng/mL) in assay media plus 1 μL of diluted drug are added to the cell plates. The treated cells are incubated in a 37° C. humidified incubator with 5% CO2 for 3 days. The amount of ATP is then measured as a surrogate marker for cell viability. This is accomplished by adding 50 μL of Perkin Elmer ATP 1 step reagent (as per instructed in the reagent manual, Cat. No. 6016739), incubating at RT for 15 min and reading the luminescence with a Perkin Elmer Topcount NXT™HTS (model c384) plate reader. The amount of SCF or GM-CSF stimulated viable cells in the presence of compound compared with in the presence of vehicle alone (HI control) is calculated using the formula: % control (POC)=(cpd−average LO)/(average HI−average LO)*100. Data (consisting of POC and inhibitor concentration in μM) is fitted to a 4-parameter equation (y=A+((B−A)/(1+((x/C)^D))), where A is the minimum y (POC) value, B is the maximum y (POC), C is the x (cpd concentration) at the point of inflection and D is the slope factor) using a Levenburg-Marquardt non-linear regression algorithm.

| Compound | pIC50 |
| --- | --- |
| O=C(Nc1cncnc1)c1c(Cl)ccc2c(Nc3ccc(C(F)(F)F)cc3)noc12 [Example 5, 6-chloro-N-(pyrimidin-5-yl)-3-(4-(trifluoromethyl)phenylamino)benzo[d]isoxazole-7-carboxamide] | ≥ 7.70 |
| CCCc1ccc(Nc2noc3c(C(=O)Nc4cncnc4)c(Cl)ccc23)cc1 [Example 17, 6-chloro-3-(4-propylphenylamino)-N-(pyrimidin-5-yl)benzo[d]isoxazole-7-carboxamide] | ≥ 7.70 |
| CCCCc1ccc(Nc2noc3c(C(=O)Nc4cncnc4)c(Cl)ccc23)cc1 [Example 18, 3-(4-butylphenylamino)-6-chloro-N-(pyrimidin-5-yl)benzo[d]isoxazole-7-carboxamide] | ≥ 7.70 |

Target: T1, c-kit kinase enzyme (Homo sapiens, UniProt P10721)
T1 construct: c-kit (6.25 μM) (catalytic domain, N-terminal GST tagged, unphosphorylated); GST (N)
Test: C-kit Homogeneous Time Resolved Fluorescent (HTRF) kinase assay
Type: biochemical
Details: read-out: average IC50 value, inhibition of the c-kit kinase enzyme
Experimental: C-kit-Homogeneous Time Resolved Fluorescent (HTRF) Kinase Assay:
The purpose of this assay is to measure the inhibition of c-kit enzyme activity (autophosphorylation and phosphorylation of substrate) by small molecule test compounds. The c-kit HTRF assay begins with c-kit-catalyzed phosphorylation of biotinylated peptide Her-2 (N-GGMEDIYFEFMGGKKK-C) in the presence of ATP. The c-kit enzyme reaction is comprised of 1 μL of compound in 100% DMSO, 15 μL of 2× substrate mix (50 μM ATP and 2 μM biotinylated Her-2) and 15 μL of 2× c-kit (6.25 μM) (catalytic domain, N-terminal GST tagged, unphosphorylated) in 4 mM DTT all diluted in enzyme buffer (25 mM HEPES pH 7.5, 12.5 mM NaCl, 50 mM MgCl, 0.05% BSA). The reaction incubates for 90 min at RT. 160 Microliters of detection mixture containing 0.47 μg/mL steptavidin allophycocyanin and 29.7 pM europylated anti-phosphotyrosine Ab (PT66, Perkin Elmer) in HTRF buffer (100 mM Hepes pH 7.5, 100 mM NaCl, 0.1% BSA, 0.05% Tween 20) is then added to stop the reaction, by diluting out the enzyme as well as to enable quantitation of phosphorylated Her-2. After 3 h at RT, the detection reaction is read in a Packard Discovery™ (model BD1000) plate reader. The wells are excited with coherent […] light and the ratio of delayed ([…] post excitation) emissions at […] (native europium fluorescence) and 665 nm (europium fluorescence transferred to allophycocyanin—an index of substrate phosphorylation) is determined. The proportion of substrate phosphorylated in the kinase reaction in the presence of compound compared with that phosphorylated in the presence of DMSO vehicle alone (HI control) is calculated using the formula: % control (POC)=(cpd−average LO)/(average HI—average LO)*100. Data (consisting of POC and inhibitor concentration in μM) is fitted to a 4-parameter equation (y=A+((B−A)/(1+((x/C)^D))), where A is the minimum y (POC) value, B is the maximum y (POC), C is the x (compound concentration) at the point of inflection and D is the slope factor) using a Levenburg-Marquardt non-linear regression algorithm.

T1 sequence (P10721 589-937 limits assumed): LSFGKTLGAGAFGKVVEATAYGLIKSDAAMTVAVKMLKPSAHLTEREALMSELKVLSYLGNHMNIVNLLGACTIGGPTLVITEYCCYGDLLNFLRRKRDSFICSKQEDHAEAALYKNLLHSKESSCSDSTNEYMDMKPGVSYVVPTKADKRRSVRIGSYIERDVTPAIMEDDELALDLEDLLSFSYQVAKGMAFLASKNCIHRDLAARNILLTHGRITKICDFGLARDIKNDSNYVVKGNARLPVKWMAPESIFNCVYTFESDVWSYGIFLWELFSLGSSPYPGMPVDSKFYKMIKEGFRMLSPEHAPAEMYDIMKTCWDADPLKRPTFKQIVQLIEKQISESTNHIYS

| pIC50 | Compound |
| --- | --- |
| ≥ 7.70 | O=C(Nc1cncnc1)c1c(Cl)ccc2c(Nc3ccc(F)c(C(F)(F)F)c3)noc12 [Example 10, 6-chloro-3-(4-fluoro-3-(trifluoromethyl)phenylamino)-N-(pyrimidin-5-yl)benzo[d]isoxazole-7-carboxamide] |
| ≥ 7.70 | O=C(Nc1cncnc1)c1c(Cl)ccc2c(Nc3cc(F)cc(C(F)(F)F)c3)noc12 [Example 12, 6-chloro-3-(3-fluoro-5-(trifluoromethyl)phenylamino)-N-(pyrimidin-5-yl)benzo[d]isoxazole-7-carboxamide] |
| ≥ 7.70 | O=C(Nc1cncnc1)c1c(Cl)ccc2c(Nc3ccc(OC(F)(F)F)cc3)noc12 [Example 15, 6-chloro-N-(pyrimidin-5-yl)-3-(4-(trifluoromethoxy)phenylamino)benzo[d]isoxazole-7-carboxamide] |
| ≥ 7.70 | CCCc1ccc(Nc2noc3c(C(=O)Nc4cncnc4)c(Cl)ccc23)cc1 [Example 17, 6-chloro-3-(4-propylphenylamino)-N-(pyrimidin-5-yl)benzo[d]isoxazole-7-carboxamide] |
